Measurements reported in publication PMC6491995, “Preclinical evaluation of the first intravenous small molecule MDM2 antagonist alone and in combination with temozolomide in neuroblastoma” (International Journal of Cancer, 2019).

How the values were obtained:
[1] = PK of orally formulated idasanutlin in subcutaneous NGP neuroblastoma xenograft model; assay type: in vivo; details: single oral dose equivalent to 100 mg/kg active idasanutlin, subcutaneous NGP xenograft mice, preliminary studies
Description: We previously conducted similar PK/PD analyses of orally formulated idasanutlin in preliminary studies of a subcutaneous NGP neuroblastoma xenograft model after a single oral dose equivalent to 100 mg/kg of active idasanutlin (Fig. S8, Supporting Information).
Figure S8. PK and PD analysis of orally formulated idasanutlin in a TP53 wt subcutaneous xenograft model of neuroblastoma. Female CD1 nude mice were implanted subcutaneously with […] TP53 wt, MDM2 and MYCN amplified NGP neuroblastoma cells. A) PK analysis of idasanutlin levels using LC-MS in plasma samples harvested at the indicated time points from tumour bearing mice treated with a single dose equivalent to 100mg/kg of active idasanutlin by oral gavage. PD profiling for B) induction of the p53 pathway using Western analysis of p53, p21, and MDM2 levels in tumours, and C) MIC-1 levels in plasma harvested at the indicated time points from subcutaneous NGP tumour bearing mice treated with a single dose of idasanutlin by oral gavage. n=3 mice per time point. CTR, control.
(1 picture or pasted object on this page, not shown here)

NB1691 cells = tested on: NB1691 cells; parameters: method as in PMID 25844600; details: 72 h, read-out: 72 h GI50 concentration; cited from earlier work
[2] = tested on: SHSY5Y-Luc orthotopic tumours; experiment: Efficacy study in SHSY5Y-Luc orthotopic tumour bearing mice; assay type: in vivo; details: for Reduction in bioluminescence vs. control: RO6839921 eq. 100 mg/kg IV weekly, temozolomide 34 mg/kg PO daily x5; for %ILS (Median): increase in lifespan vs. control based on median survival
Description: (§1) All in vivo experiments were approved by the licencing and ethical committee of the IRCCS San Martino‐IST (Genoa, Italy), the Italian Ministry of Health, Newcastle University and the UK Government Home Office. Orthotopic murine SHSY5Y‐Luc or NB1691‐Luc models were established and monitored using bioluminescence (BLI) IVIS imaging, as previously described.18, 19, 20 RO6839921 (equivalent to 100 mg/kg of active idasanutlin) and temozolomide (34 mg/kg equivalent to 100 mg/m^2 were given by IV tail vein injection and oral gavage, respectively. Tumour bearing mice were randomised into n = 3/group and n = 8/group for pharmacokinetic (PK)/pharmacodynamic (PD) studies and efficacy studies, respectively, and samples taken at the indicated time points (Supporting Information Fig. S1). To minimise esterase activity, 0.2% dichlorvos (Sigma‐Aldrich) was added to blood samples. […] Animals were monitored 2–3 times weekly and euthanized humanely just before showing signs of illness/suffering such as abdominal dilatation, paraplegia, dehydration, or severe weight loss. Percentage increase in lifespan (%ILS) was calculated based on both median and mean survival to humane endpoint, as previously described.5 For more detailed procedures see Supporting Information.
(§2) The efficacy of RO6839921 alone and in combination with temozolomide was assessed in SHSY5Y‐Luc and NB1691‐Luc orthotopic tumour bearing mice. The intermittent schedule used is equivalent to one cycle of treatment over a 3 week period (Fig. S1, Supporting Information). Mice were randomised into control, RO6839921 (once per week for 3 weeks), temozolomide (daily x5/3 weeks; consistent with the currently used clinical dosing schedule in the BEACON Trial (NCT02308527)), or RO6839921 and temozolomide treatment groups (n = 8/group; Fig. S1, Supporting Information).
(§3) Supplementary Information
(§4) Detailed methods of orthotopic in vivo experiments
(§5) Five week old female athymic Nude-Foxn1nu mice (Envigo, Bresso, Italy) were anesthetized, subjected to a laparotomy and orthotopically injected with 1×10^6 SHSY5Y-Luc or NB1691-Luc neuroblastoma cells into the capsule of the left adrenal gland, as previously described (1-3). […]
(§6) using BLI IVIS imaging for tumour development (~2-3 weeks) prior to commencement of treatment. […]
(§7) 10min and stored at -80°C. For efficacy studies, SHSY5Y-Luc or NB1691-Luc tumour bearing mice were randomized […]
(§8) temozolomide (34mg/kg, daily x5 only by oral gavage) or RO6839921 and temozolomide treatment groups with 8 mice per group (Figure S1), and monitored by IVIS imaging for tumour growth. Baseline bioluminescence were measured prior to initiation of treatment on Day 1, and then during treatment on Days 8 (BLI1) and 15 (BLI2) (Figure S1). Twenty-four hours after the end of treatment, 3 mice per group were sacrificed for PK and PD analyses, and the remaining 5 mice per group were monitored for survival to humane endpoint (Figure S1). Animals were monitored 2-3 times weekly

[3] = tested on: NB1691-Luc orthotopic tumours; experiment: Efficacy study in NB1691-Luc orthotopic tumour bearing mice; assay type: in vivo; details: for Reduction in bioluminescence vs. control: RO6839921 eq. 100 mg/kg IV weekly, temozolomide 34 mg/kg PO daily x5; for %ILS (Median): increase in lifespan vs. control based on median survival
Description: as §1, §2, §3, §4, §5, §6, §7, §8

[4] = tested on: NB1691-Luc orthotopic tumours; experiment: IHC analysis of NB1691-Luc orthotopic tumours after one treatment cycle; assay type: in vivo, mice; details: 24 h after one treatment cycle, n = 3
Description: Tumours were disaggregated in Phosphosafe buffer (Merck Millipore) using the Medimachine with Medicons inserts (BD Biosciences, Oxford, UK) and Western analysis carried out as previously described.21 Human MIC‐1 assays were performed according to manufacturer's protocols (R&D Systems). IHC was performed using validated protocols and the Ventana Benchmark Ultra automated system (Ventana Medical Systems, Inc, Tucson, AZ, USA) in the Cellular Pathology Department, Royal Victoria Infirmary, Newcastle upon Tyne, UK.
Figure 3 MIC‐1 levels and IHC analysis of Ki67, p53, p21, and cleaved caspase 3 (CC3) in orthotopic tumours in response to one cycle of RO6839921 and temozolomide alone and in combination. […] Statistically significant differences vs. control were determined by unpaired t‐tests. […] Graphical representation of quantification of % positive Ki67, p53, p21, and CC3 staining in (d) NB1691‐Luc and (e) SHSY5Y‐Luc orthotopic tumours using Imagescope software and algorithms (Leica Biosystems, Newcastle upon Tyne, UK) and/or scored for positive immunostaining by a consultant pathologist (KW). n = 3 mice per group. […] Statistically significant differences were determined by one‐way ANOVA with Bonferroni post‐hoc tests and paired testing vs. control. p ≤ 0.05 (*); 0.01 (**); 0.001 (***); 0.0001 (****). […]

[5] = parameters: method as in PMID 16047361, PMID 9744506, PMID 9738573, PMID 17114659; details: clinical data in children; cited from earlier work
[6] = after 1 week of treatment (Day 8/BLI1)
[7] = after 2 weeks of treatment (Day 15/BLI2)
[8] = increase in lifespan vs. control based on mean survival
[9] = survival to humane endpoint, n = 5/group, one treatment cycle

Row | SMILES | Plasma concentration of active idasanutlin [1] | GI50 (NB1691 cells) | Reduction in bioluminescence vs. control [2, 6] | Reduction in bioluminescence vs. control [2, 7] | %ILS (Mean) [2, 8] | %ILS (Median) [2] | %ILS (Median) ([2]; listed as Temozolomide) | Mean Survival [2, 9] | Median Survival [2, 9] | Reduction in bioluminescence vs. control [3, 6] | Reduction in bioluminescence vs. control [3, 7] | %ILS (Mean) [3, 8] | %ILS (Median) [3] | %ILS (Median) ([3]; listed as Temozolomide) | Mean Survival [3, 9] | Median Survival [3, 9] | Ki67 positive cells vs. control (IHC) [4] | Main toxicities in children [5]
1 | COc1cc(C(=O)O)ccc1NC(=O)[C@@H]1N[C@@H](CC(C)(C)C)[C@](C#N)(c2ccc(Cl)cc2F)[C@H]1c1cccc(Cl)c1F [idasanutlin, Idasanutlin] | ~5000 ng/mL | 0.041 µM | – | – | – | – | – | – | – | – | – | – | – | – | – | – | – | –
2 | Cn1nnc2c(C(N)=O)ncn2c1=O [temozolomide] | – | 868 µM | 36% | 39% | 11% | 14% | 14% | 49 days | 49 days | 35% | 24% | 16% | 6% | 6% | 41 days | 37 days | did not reduce | thrombocytopenia and neutropenia
